ChEMBL document CHEMBL1201862, “PubChem BioAssay data set” (2004)
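Dose response: 5 concentrations. Exposure: 48 h. Format: 96-well plates. Endpoint: linear interpolation; highest concentration if not reached. Here, GI50 denotes the concentration required for 50% inhibition of growth.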 Activity calls are given as the source filed them. Rule as the data show it: active = GI50 up to about 1.1 µM and inactive = higher.

Legend:
Test in all cases: inhibition of tumour cell growth, NCI panel, 48 h
A549 = test system: A549
ACHN = test system: ACHN
DMS-273 = test system: DMS-273
EKVX = test system: EKVX
HCT-116 = test system: HCT-116
HT-29 = test system: HT-29
NCI-H226 = test system: NCI-H226
NCI-H522 = test system: NCI-H522
OVCAR-3 = test system: OVCAR-3
RXF 393 = test system: RXF 393
SF-295 = test system: SF-295
SN12C = test system: SN12C
SR = test system: SR
U-251 = test system: U-251
UO-31 = test system: UO-31
IGROV-1 = test system: IGROV-1
TK-10 = test system: TK-10

Measured: GI50

CCOC1=C2N=C(Cc3ccccc3F)N=C2C(=O)c2ccccc21
inactive: A549 > 100 µM | ACHN > 100 µM | DMS-273 > 100 µM | EKVX > 100 µM | HCT-116 > 100 µM | HT-29 > 100 µM | NCI-H226 > 100 µM | NCI-H522 > 100 µM | OVCAR-3 > 100 µM | RXF 393 > 100 µM | SF-295 > 100 µM | SN12C > 100 µM | SR > 100 µM | U-251 > 100 µM | UO-31 > 100 µM

O=C1CCC(c2nc3ccccc3o2)C(=O)N1 (stereo not drawn)
inactive: A549 > 100 µM | ACHN > 100 µM | DMS-273 > 100 µM | EKVX > 100 µM | HCT-116 > 100 µM | HT-29 > 100 µM | IGROV-1 > 100 µM | NCI-H226 > 100 µM | NCI-H522 > 100 µM | OVCAR-3 > 100 µM | RXF 393 > 100 µM | SF-295 > 100 µM | SN12C > 100 µM | SR > 100 µM | TK-10 > 100 µM | U-251 > 100 µM | UO-31 > 100 µM

CN(C)/N=N/c1c[nH]nc1C(N)=O
inactive: A549 > 100 µM | ACHN 76.7 µM | DMS-273 > 100 µM | EKVX > 100 µM | HCT-116 > 100 µM | HT-29 > 100 µM | IGROV-1 > 100 µM | NCI-H226 > 100 µM | NCI-H522 42.9 µM | OVCAR-3 > 100 µM | SF-295 > 100 µM | SN12C > 100 µM | SR 31.3 µM | TK-10 > 100 µM | U-251 > 100 µM

COc1ccc(C=C(c2ccc(OCc3ccccc3)cc2)c2ccc(OCc3ccccc3)cc2)cc1
inactive: A549 > 100 µM | ACHN > 100 µM | DMS-273 > 100 µM | EKVX > 100 µM | HT-29 > 100 µM | IGROV-1 > 100 µM | NCI-H226 > 100 µM | NCI-H522 > 100 µM | OVCAR-3 > 100 µM | RXF 393 > 100 µM | SF-295 > 100 µM | SN12C > 100 µM | SR > 100 µM | TK-10 > 100 µM | U-251 > 100 µM | UO-31 > 100 µM

N#CC1(CCCCl)CCCCC1
inactive: A549 > 100 µM | ACHN > 100 µM | DMS-273 > 100 µM | EKVX > 100 µM | HCT-116 > 100 µM | HT-29 > 100 µM | IGROV-1 > 100 µM | NCI-H522 > 100 µM | OVCAR-3 > 100 µM | RXF 393 > 100 µM | SF-295 > 100 µM | SN12C > 100 µM | SR > 100 µM | TK-10 > 100 µM | U-251 > 100 µM | UO-31 > 100 µM

COc1ccc(Nc2nc3cc(C(F)(F)F)ccc3nc2-c2ccccc2)cc1OC
inactive: A549 25.9 µM | ACHN 30.6 µM | DMS-273 6.08 µM | EKVX 17.3 µM | HCT-116 12.6 µM | HT-29 46.7 µM | IGROV-1 24.9 µM | NCI-H226 15.8 µM | NCI-H522 30 µM | OVCAR-3 18.7 µM | RXF 393 11.9 µM | SF-295 11.3 µM | SN12C 39.7 µM | SR 75.9 µM | TK-10 15 µM | U-251 30.9 µM | UO-31 11.8 µM

O=C1c2ccccc2C(=O)C1C(c1ccc(F)cc1)C1C(=O)c2ccccc2C1=O
inactive: A549 > 100 µM | ACHN > 100 µM | DMS-273 > 100 µM | EKVX > 100 µM | HCT-116 > 100 µM | HT-29 > 100 µM | NCI-H226 > 100 µM | NCI-H522 > 100 µM | OVCAR-3 > 100 µM | RXF 393 24.8 µM | SF-295 > 100 µM | SN12C > 100 µM | SR 41.5 µM | TK-10 > 100 µM | U-251 > 100 µM | UO-31 > 100 µM

N#C/C(=C\c1cc(O)ccc1O)C(N)=O
inactive: A549 78.5 µM | ACHN 26.8 µM | DMS-273 47.3 µM | EKVX 33.1 µM | HCT-116 63.2 µM | HT-29 38.8 µM | IGROV-1 99.5 µM | NCI-H226 34 µM | NCI-H522 18.2 µM | OVCAR-3 38.6 µM | RXF 393 19 µM | SF-295 47.6 µM | SN12C 50.4 µM | TK-10 50.8 µM | U-251 98.4 µM | UO-31 35.7 µM
